# In patent US20250353864A1, “INDAZOLE CONTAINING MACROCYCLES AND THEIR USE” (BLOSSOMHILL THERAPEUTICS, INC., priority 2022, published 2025):
# How the values were obtained:
# Assay type in all cases: biochemical
# EGFR L858R/T790M mutant = EGFR L858R/T790M mutant (Homo sapiens (Human), UniProt P00533, L858R/T790M); test: HotSpot radiometric kinase assay, EGFR L858R/T790M mutant; conditions: 10 μM ATP
# Summary of the method: (§1)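 IC50 values come from curve fits of ^33P incorporation captured on P81 filters after acid washing. Kinase reactions ran 120 min at room temperature with 10 μM ATP, added about 20 min after compound. Buffer was Hepes pH 7.5 containing Mg, DTT and 1% DMSO.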
# CLK3 = CLK3 (Homo sapiens (Human), UniProt P49761); test: Inhibition of CLK3 kinase activity evaluated at Nanosyn (ADP-Glo); conditions: ADP-Glo luminescence
# Sequence of CLK3 (P49761 whole entry): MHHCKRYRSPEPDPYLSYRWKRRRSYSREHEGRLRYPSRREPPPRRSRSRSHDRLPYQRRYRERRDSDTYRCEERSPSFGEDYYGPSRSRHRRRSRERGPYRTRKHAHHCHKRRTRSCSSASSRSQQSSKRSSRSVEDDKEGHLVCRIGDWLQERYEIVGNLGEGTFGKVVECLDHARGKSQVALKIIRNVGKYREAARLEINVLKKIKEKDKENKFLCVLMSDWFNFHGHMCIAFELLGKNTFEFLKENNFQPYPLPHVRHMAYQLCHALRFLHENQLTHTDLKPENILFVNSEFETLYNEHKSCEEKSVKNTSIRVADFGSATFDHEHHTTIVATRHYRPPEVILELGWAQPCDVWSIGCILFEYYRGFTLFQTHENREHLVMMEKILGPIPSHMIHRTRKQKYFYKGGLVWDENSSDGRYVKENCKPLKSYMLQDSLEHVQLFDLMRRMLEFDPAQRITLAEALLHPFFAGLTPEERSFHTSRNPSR
# Summary of the method: (§2)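 Kinase and substrate in pH 7.5 HEPES buffer (5 mM MgCl2, 0.01% Triton X-100, 0.1% BSA) with compound at 1% DMSO; reaction started with ATP, incubated for an assay-specific time. ADP formed detected by ADP-Glo luminescence; %-inhibition versus DMSO and no-enzyme controls.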
# CLK2 = CLK2 (Homo sapiens (Human), UniProt P49760); test: Inhibition of CLK2 kinase activity evaluated at Nanosyn (ADP-Glo); conditions: ADP-Glo luminescence
# Sequence of CLK2 (P49760 whole entry): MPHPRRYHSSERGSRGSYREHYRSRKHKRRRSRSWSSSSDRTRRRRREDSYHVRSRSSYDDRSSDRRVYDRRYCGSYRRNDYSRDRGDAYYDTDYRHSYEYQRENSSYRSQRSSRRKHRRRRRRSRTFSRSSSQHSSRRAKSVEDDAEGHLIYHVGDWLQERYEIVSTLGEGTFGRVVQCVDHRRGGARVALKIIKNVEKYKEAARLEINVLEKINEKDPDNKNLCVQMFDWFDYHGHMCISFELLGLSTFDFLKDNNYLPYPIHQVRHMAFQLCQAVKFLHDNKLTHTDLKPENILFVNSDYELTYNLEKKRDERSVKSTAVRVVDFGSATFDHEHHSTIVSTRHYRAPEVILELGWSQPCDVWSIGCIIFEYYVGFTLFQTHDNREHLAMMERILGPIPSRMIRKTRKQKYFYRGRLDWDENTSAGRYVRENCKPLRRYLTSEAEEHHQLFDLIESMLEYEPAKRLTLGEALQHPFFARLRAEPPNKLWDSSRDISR
# Summary of the method: as §2
# EGFR WT = EGFR WT (Homo sapiens (Human), UniProt P00533); test: HotSpot radiometric kinase assay (Reaction Biology), EGFR WT; conditions: 10 μM ATP
# Summary of the method: as §1
# [1] = molecular target: EGFR Δ746-750/C797S mutant (Homo sapiens (Human), UniProt P00533, C797S/DEL746-750); test: HotSpot radiometric kinase assay, EGFR Δ746-750/C797S mutant; conditions: 10 μM ATP
# Summary of the method: as §1
# EGFR (D770_N771insNPG) = EGFR (D770_N771insNPG) (Homo sapiens (Human), UniProt P00533, INS770NPG); test: HotSpot radiometric kinase assay, EGFR (D770_N771insNPG); conditions: 10 μM ATP, read-out: EGFR (Δ770_N771insNPG) IC50
# Sequence of EGFR (D770_N771insNPG) (P00533 other isoform, or with tags, fused parts or gaps del 1-668/ins NPG behind 770 limits assumed): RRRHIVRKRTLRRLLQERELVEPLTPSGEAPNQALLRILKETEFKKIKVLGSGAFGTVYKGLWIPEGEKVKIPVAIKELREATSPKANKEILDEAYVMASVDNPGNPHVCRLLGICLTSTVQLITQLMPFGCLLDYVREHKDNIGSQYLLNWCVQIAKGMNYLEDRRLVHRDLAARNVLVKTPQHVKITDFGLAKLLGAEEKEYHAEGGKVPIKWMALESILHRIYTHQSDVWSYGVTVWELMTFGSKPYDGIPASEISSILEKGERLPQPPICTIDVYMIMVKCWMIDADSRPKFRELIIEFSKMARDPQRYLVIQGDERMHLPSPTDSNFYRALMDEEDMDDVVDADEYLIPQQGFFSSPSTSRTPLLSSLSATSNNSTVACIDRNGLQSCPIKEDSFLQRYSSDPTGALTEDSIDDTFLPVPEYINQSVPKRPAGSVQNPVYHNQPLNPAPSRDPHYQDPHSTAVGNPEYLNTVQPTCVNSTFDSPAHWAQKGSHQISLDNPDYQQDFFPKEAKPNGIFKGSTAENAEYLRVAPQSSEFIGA
# Summary of the method: as §1
# EGFR L858R mutant = EGFR L858R mutant (Homo sapiens (Human), UniProt P00533, L858R); test: HotSpot radiometric kinase assay, EGFR L858R mutant; conditions: 10 μM ATP
# Sequence of EGFR L858R mutant (P00533 25-1210 L858R): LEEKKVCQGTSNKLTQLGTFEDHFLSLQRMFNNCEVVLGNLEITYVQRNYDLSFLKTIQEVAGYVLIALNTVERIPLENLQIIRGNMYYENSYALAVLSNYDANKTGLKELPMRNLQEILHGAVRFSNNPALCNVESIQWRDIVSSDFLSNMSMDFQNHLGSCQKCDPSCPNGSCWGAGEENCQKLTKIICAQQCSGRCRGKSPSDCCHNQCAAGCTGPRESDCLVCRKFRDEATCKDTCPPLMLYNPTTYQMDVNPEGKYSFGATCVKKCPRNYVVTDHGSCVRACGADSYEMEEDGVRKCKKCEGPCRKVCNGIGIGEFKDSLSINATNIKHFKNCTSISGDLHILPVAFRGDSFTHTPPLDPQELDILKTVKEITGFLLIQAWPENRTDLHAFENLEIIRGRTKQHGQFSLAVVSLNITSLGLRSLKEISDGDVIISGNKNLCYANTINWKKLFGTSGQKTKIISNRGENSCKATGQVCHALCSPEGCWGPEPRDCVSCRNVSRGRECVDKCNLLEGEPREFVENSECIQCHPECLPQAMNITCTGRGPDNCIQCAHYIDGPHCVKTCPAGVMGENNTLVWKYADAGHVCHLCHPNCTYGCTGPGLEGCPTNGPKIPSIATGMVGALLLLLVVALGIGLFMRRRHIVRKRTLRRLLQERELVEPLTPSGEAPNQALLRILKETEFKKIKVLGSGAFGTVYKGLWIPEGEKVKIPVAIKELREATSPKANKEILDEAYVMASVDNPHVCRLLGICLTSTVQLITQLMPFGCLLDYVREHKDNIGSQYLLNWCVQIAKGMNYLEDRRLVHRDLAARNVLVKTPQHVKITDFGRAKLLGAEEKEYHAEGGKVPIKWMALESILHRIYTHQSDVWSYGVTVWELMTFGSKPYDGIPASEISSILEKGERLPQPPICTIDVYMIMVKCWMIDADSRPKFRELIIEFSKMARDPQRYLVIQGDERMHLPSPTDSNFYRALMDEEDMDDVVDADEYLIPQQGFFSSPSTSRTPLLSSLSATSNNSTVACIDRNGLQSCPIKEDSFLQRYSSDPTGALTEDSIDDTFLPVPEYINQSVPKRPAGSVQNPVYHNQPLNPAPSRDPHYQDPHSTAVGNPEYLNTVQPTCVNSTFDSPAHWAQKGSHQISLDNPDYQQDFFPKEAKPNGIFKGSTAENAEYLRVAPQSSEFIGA
# Summary of the method: as §1
# EGFR Δ746-750 mutant = EGFR Δ746-750 mutant (Homo sapiens (Human), UniProt P00533, DEL746-750); test: HotSpot radiometric kinase assay, EGFR Δ746-750 mutant; conditions: 10 μM ATP
# Sequence of EGFR Δ746-750 mutant (P00533 other isoform, or with tags, fused parts or gaps del 1-668/del 746-750 limits assumed): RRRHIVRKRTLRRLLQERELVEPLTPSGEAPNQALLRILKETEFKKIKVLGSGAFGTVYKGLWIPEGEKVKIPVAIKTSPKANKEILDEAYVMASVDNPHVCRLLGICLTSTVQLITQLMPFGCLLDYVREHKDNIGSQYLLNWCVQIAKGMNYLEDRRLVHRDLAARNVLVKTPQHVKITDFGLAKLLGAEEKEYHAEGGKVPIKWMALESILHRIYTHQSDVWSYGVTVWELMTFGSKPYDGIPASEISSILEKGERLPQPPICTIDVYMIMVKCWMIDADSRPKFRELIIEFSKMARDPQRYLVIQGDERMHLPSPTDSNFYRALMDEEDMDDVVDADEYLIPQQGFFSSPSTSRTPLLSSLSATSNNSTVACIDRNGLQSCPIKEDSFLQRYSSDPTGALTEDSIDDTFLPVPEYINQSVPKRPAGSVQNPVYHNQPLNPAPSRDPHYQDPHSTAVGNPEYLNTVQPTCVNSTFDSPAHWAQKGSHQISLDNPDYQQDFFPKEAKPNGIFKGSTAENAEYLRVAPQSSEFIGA
# Summary of the method: as §1
# [2] = molecular target: EGFR L858R/T790M/C797S mutant (Homo sapiens (Human), UniProt P00533, C797S/L858R/T790M); test: HotSpot radiometric kinase assay, EGFR L858R/T790M/C797S mutant; conditions: 10 μM ATP
# Sequence of EGFR L858R/T790M/C797S mutant (P00533 25-1210 T790M/C797S/L858R): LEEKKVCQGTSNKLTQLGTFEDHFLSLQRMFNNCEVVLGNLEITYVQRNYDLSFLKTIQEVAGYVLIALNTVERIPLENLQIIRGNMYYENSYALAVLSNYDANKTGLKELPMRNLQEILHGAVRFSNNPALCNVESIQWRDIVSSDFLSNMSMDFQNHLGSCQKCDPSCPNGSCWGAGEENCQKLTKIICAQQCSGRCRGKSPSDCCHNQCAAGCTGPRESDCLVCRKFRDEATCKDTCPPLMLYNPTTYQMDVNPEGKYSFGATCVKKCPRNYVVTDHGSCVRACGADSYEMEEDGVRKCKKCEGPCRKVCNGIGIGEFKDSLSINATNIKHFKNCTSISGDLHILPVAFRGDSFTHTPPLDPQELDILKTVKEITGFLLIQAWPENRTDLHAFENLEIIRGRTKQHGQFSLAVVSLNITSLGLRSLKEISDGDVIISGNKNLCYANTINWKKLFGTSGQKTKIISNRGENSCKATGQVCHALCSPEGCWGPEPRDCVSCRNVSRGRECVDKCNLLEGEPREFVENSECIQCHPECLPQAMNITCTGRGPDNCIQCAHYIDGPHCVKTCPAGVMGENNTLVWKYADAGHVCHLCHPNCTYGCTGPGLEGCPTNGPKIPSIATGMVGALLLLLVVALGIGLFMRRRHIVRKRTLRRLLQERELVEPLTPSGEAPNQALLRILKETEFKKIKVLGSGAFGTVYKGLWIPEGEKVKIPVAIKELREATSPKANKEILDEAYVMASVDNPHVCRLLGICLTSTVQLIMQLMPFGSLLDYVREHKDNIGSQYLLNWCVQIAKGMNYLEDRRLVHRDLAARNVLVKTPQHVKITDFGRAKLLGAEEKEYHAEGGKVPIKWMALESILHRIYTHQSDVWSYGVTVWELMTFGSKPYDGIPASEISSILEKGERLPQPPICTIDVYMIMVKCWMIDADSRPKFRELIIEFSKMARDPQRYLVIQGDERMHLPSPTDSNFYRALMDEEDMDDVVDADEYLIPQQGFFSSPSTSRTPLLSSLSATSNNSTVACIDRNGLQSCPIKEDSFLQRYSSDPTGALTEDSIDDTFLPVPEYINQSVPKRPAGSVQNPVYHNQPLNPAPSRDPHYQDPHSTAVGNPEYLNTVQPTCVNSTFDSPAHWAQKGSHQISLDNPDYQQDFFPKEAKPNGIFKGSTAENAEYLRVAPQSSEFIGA
# Summary of the method: as §1
# CLK4 = CLK4 (Homo sapiens (Human), UniProt Q9HAZ1); test: Inhibition of CLK4 kinase activity evaluated at Nanosyn (ADP-Glo); conditions: ADP-Glo luminescence
# Sequence of CLK4 (Q9HAZ1 whole entry): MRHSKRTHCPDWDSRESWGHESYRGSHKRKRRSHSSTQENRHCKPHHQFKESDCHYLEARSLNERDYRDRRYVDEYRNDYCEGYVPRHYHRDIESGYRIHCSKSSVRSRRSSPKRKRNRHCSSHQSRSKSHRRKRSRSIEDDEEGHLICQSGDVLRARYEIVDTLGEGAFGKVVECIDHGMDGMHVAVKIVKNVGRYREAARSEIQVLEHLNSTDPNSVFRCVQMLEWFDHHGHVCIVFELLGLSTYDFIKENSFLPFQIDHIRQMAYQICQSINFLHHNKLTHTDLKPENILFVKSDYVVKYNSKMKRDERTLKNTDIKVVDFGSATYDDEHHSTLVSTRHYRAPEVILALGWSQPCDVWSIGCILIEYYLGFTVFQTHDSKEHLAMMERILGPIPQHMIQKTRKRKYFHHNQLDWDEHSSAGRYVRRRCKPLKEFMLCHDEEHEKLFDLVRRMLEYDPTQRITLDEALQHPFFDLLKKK
# Summary of the method: as §2
# CLK1 = CLK1 (Homo sapiens (Human), UniProt P49759); test: Inhibition of CLK1 kinase activity evaluated at Nanosyn (ADP-Glo); conditions: ADP-Glo luminescence
# Summary of the method: as §2
SMILES,IC50 (EGFR L858R/T790M mutant) [nM],IC50 (CLK3) [nM],IC50 (CLK2) [nM],IC50 (EGFR WT) [nM],IC50 [1] [nM],IC50 (EGFR (D770_N771insNPG)) [nM],IC50 (EGFR L858R mutant) [nM],IC50 (EGFR Δ746-750 mutant) [nM],IC50 [2] [nM],IC50 (CLK4) [nM],IC50 (CLK1) [nM]
"CC(C)Oc1nn(CCO)c2c1/C=C/c1n[nH]c3cc(F)c(cc13)-c1cnn(C)c1O[C@H](C)[C@H]1CCCN1C2 (single isomer, unassigned) [Example 255]",3.01,9.89,0.27,1.43,1.98,4.05,1.18,0.95,6.62,1.6,0.82
"CCc1noc2c1/C=C/c1n[nH]c3ccc(cc13)-c1cnn(C)c1O[C@@H](C)CN(C)C2 [Example 174, (10S,17E)-16-ethyl-8,10,12-trimethyl-2,8,10,11,12,13-hexahydro-3,5-etheno[1,2]oxazolo[5,4-f]dipyrazolo[3,4-j:4′,3′-n][1,4]oxazacyclopentadecine]",10.9,128,0.21,752,27.2,996,127,133,4.88,0.51,0.16
"Cc1nn(C)c2c1/C=C/c1n[nH]c3ccc(cc13)-c1cnn(C)c1O[C@@H](C)CN(C1CC1)C2 [Example 161, (10S,17E)-12-cyclopropyl-8,10,14,16-tetramethyl-2,10,11,12,13,14-hexahydro-8H-3,5-ethenotripyrazolo[3,4-f:3′,4′-j:4″,3″-n][1,4]oxazacyclopentadecine]",3.1,164,0.14,171,13.5,191,47.1,20,1.4,0.57,0.27
"CCOc1nn(C)c2c1/C=C/c1n[nH]c3ccc(cc13)-c1cnn(C)c1OC1CN(C2)C1 [Example 238, (17E)-16-ethoxy-8,14-dimethyl-2,8,10,11,13,14-hexahydro-3,5-etheno-10,12-methanotripyrazolo[3,4-f:3′,4′-j:4″,3″-n][1,4]oxazacyclopentadecine]",10.2,1000,2.44,203,41.3,219,73,17.5,11.7,1.07,0.9
"CCOc1nn([C@@H](C)CO)c2c1/C=C/c1n[nH]c3cc(F)c(cc13)-c1cnn(C)c1O[C@H](C)CN(C(C)C)C2 [Example 229, (2S)-2-[(10R,17E)-16-ethoxy-19-fluoro-8,10-dimethyl-12-(propan-2-yl)-2,8,10,11,12,13-hexahydro-14H-3,5-ethenotripyrazolo[3,4-f:3′,4′-j:4″,3″- n][1,4]oxazacyclopentadecin-14-yl]propan-1-ol]",4.07,1000,59.6,24.8,4.05,38.6,7.1,1.94,1.24,68.5,131
"Cc1nn(C)c2c1/C=C/c1n[nH]c3ccc(cc13)-c1cnn(C)c1OCCN1CC[C@@H](O2)C1=O [Example 109, (10R,15E)-3,12,14-trimethyl-5,6,9,10,12,18-hexahydro-3H,8H-19,21-etheno-7,10-methanotripyrazolo[3,4-i:3′,4′-m:4″,3″-q][1,8,4]dioxazacyclooctadecin-24-one]",15.9,2,0.09,856,152,298,165,38,47.1,0.85,0.46

# The next compounds have a lower IC50 (EGFR L858R/T790M mutant) than those just listed; values first:
IC50 (EGFR L858R/T790M mutant) [nM],IC50 (CLK3) [nM],IC50 (CLK2) [nM],IC50 (EGFR WT) [nM],IC50 [1] [nM],IC50 (EGFR (D770_N771insNPG)) [nM],IC50 (EGFR L858R mutant) [nM],IC50 (EGFR Δ746-750 mutant) [nM],IC50 [2] [nM],IC50 (CLK4) [nM],IC50 (CLK1) [nM],SMILES
1.58,12.1,0.02,320,41.3,1630,39.6,39.4,4.63,0.61,0.19,"C[C@H]1CN(C)Cc2c(c(OC3CCN(S(C)(=O)=O)CC3)nn2C)/C=C/c2n[nH]c3ccc(cc23)-c2cnn(C)c2O1 [Example 143, (10S,17E)-16-{[1-(methanesulfonyl)piperidin-4-yl]oxy}-8,10,12,14-tetramethyl-2,10,11, 12,13,14-hexahydro-8H-3,5-ethenotripyrazolo[3,4-f 3′,4′-j:4″,3″-n][1,4]oxazacyclopentadecine]"
0.6,79.2,2.13,55.3,4.8,129,7.8,6.59,1.02,1.55,1.37,"CCOc1nn(CCO)c2c1/C=C/c1n[nH]c3ccc(cc13)-c1cnn(C)c1O[C@@H]1CCCN(C2)C1 [Example 137, 2-[(10R,19E)-18-ethoxy-8-methyl-2,10,11,12,13,15-hexahydro-3,5-etheno-10,14-methanotripyrazolo[3,4-h:3′,4′-l:4″,3″-p][1,6]oxazacycloheptadecin-16(8H)-yl]ethan-1-ol]"
0.47,72.4,0.02,28.5,2.33,19,6.08,4.84,0.44,0.19,0.1,"CCN1Cc2c(c(C)nn2C)/C=C/c2n[nH]c3ccc(cc23)-c2cnn(C)c2O[C@@H](C)C1 [Example 165, (10S,17E)-12-ethyl-8,10,14,16-tetramethyl-2,10,11,12,13,14-hexahydro-8H-3,5-ethenotripyrazolo[3,4-f:3′,4′-j:4″,3″-n][1,4]oxazacyclopentadecine]"
1.42,38.2,0.3,63,19.5,246,34.4,13.6,1.08,0.41,0.22,"CCOc1nn(C)c2c1/C=C/c1n[nH]c3ccc(cc13)-c1cnn(C)c1O[C@@H]1CCCN(C2)C1 [Example 160, (10R,19E)-18-ethoxy-8,16-dimethyl-2,8,10,11,12,13,15,16-octahydro-3,5-etheno-10,14-methanotripyrazolo[3,4-h:3′,4′-l:4″,3″- p][1,6]oxazacycloheptadecine]"
0.48,346,0.49,19.3,1.6,36.1,2.01,3.24,1.26,1.13,0.47,"CCn1ncc2c1O[C@@H](C)CN(C)Cc1c(c(OC(C)C)nn1CCO)/C=C/c1n[nH]c3ccc-2cc13 [Example 169, 2-{(10S,17E)-8-ethyl-10,12-dimethyl-16-[(propan-2-yl)oxy]-2,8,10,11,12,13-hexahydro-14H-3,5-ethenotripyrazolo[3,4-f:3′,4′-j:4″,3″- n][1,4]oxazacyclopentadecin-14-yl}ethan-1-ol]"
1.46,21.2,0.15,94.2,6.79,58,11.9,7.45,2.09,0.6,0.27,"Cc1nn(C)c2c1/C=C/c1n[nH]c3ccc(cc13)-c1cnn(C)c1O[C@@H]1CCCN(C2)C1 [Example 122, (10R,19E)-8,16,18-trimethyl-2,8,10,11,12,13,15,16-octahydro-3,5-etheno-10,14-methanotripyrazolo[3,4-h:3′,4′-l:4″,3″-p][1,6]oxazacycloheptadecine]"
0.5,977,0.62,67.2,8.74,86,7.5,38.3,1.32,0.57,0.85,"CCOc1nn([C@H](C)CO)c2c1/C=C/c1n[nH]c3ccc(cc13)-c1cnn(C)c1O[C@@H](C)CN(C)C2 [Example 171, (2R)-2-[(10S,17E)-16-ethoxy-8,10,12-trimethyl-2,8,10,11,12,13-hexahydro-14H-3,5-ethenotripyrazolo[3,4-f:3′,4′-j:4″,3″-n][1,4]oxazacyclopentadecin-14-yl]propan-1-ol]"
